Assay results taken from patent US5700635A, “HIV-1 gag cytotoxic T-lymphocyte epitope and method of use” (United Biomedical, Inc., priority 1989, dated 1997).

How the values were obtained:
[1] = tested on: cytotoxic T lymphocytes specific for gag and HLA B8
[2] = tested on: cytotoxic T lymphocytes

SMILES: CC[C@H](C)[C@H](NC(=O)[C@H](CCC(=O)O)NC(=O)CNC(=O)[C@@H](NC(=O)[C@@H]1CCCN1C(=O)[C@@H](NC(=O)[C@@H]1CCCN1C(=O)[C@@H]1CCCN1C(=O)[C@@H](N)CC(N)=O)[C@@H](C)CC)C(C)C)C(=O)N[C@@H](Cc1ccc(O)cc1)C(=O)N[C@@H](CCCCN)C(=O)N[C@@H](CCCNC(=N)N)C(=O)N[C@@H](Cc1c[nH]c2ccccc12)C(=O)N[C@H](C(=O)N[C@H](C(=O)N[C@@H](CS)C(=O)O)[C@@H](C)CC)[C@@H](C)CC [p24-13, NH2 -asparagine-proline-proline-isoleucine-proline-valine-glycine-glutamate-isoleucine-tyrosine-lysine-arginine-tryptophan-isoleucine-iso leucine-cysteine-COOH]
- recognition of peptide by cytotoxic T lymphocytes (lysis of target cells) [1]: recognised by cytotoxic T lymphocytes specific for gag and HLA B8
- specific interaction with HLA class I molecule [1]: interacts specifically with HLA B8
- stimulation of cytotoxic T lymphocytes to grow in vitro [2]: have been used to stimulate cytotoxic T lymphocytes to grow in vitro
